pIC50: −log10 of the molar value. Where a name gives a salt, the structure may show the parent alone.
How the values were obtained:
WSU-DLCL2 cells = experiment: Cell proliferation analysis, WSU-DLCL2 (Cell Titer Glo); format: cell-based; settings: Homo sapiens, WSUDLCL2, 144 h, 6 days incubation, ATP readout
Source text: Cell Proliferation Analysis
WSU-DLCL2 suspension cells were purchased from DSMZ (German Collection of Microorganisms and Cell Cultures, Braunschweig, Germany), RPMI/Glutamax Medium, Penicillin-Streptomycin, Heat Inactivated Fetal Bovine Serum were purchased from Life Technologies, Grand Island, N.Y., USA, V-bottom polypropylene 384-well plates were purchased from Greiner Bio-One, Monroe, N.C., USA. Cell culture 384-well white opaque plates were purchased from Perkin Elmer, Waltham, Mass., USA. Cell-Titer Glo® was purchased from Promega Corporation, Madison, Wis., USA. SpectraMax M5 plate reader was purchased from Molecular Devices LLC, Sunnyvale, Calif., USA.
WSU-DLCL2 suspension cells were maintained in growth medium (RPMI 1640 supplemented with 10% v/v heat inactivated fetal bovine serum and cultured at 37° C. under 5% CO2. Under assay conditions, cells were incubated in Assay Medium (RPMI 1640 supplemented with 20% v/v heat inactivated fetal bovine serum and 100 units/mL penicillin-streptomycin) at 37° C. under 5% CO2.
For the assessment of the effect of compounds on the proliferation of the WSU-DLCL2 cell line, exponentially growing cells were plated in 384-well white opaque plates at a density of 1250 cell/ml in a final volume of 50 μl of assay medium. A compound source plate was prepared by performing triplicate nine-point 3-fold serial dilutions in DMSO, beginning at 10 mM (final top concentration of compound in the assay was 20 μM and the DMSO was 0.2%). A 100 nL aliquot from the compound stock plate was added to its respective well in the cell plate. […] After addition of compounds, assay plates were incubated for 6 days at 37° C., 5% CO2, relative humidity >90% for 6 days. Cell viability was measured by quantization of ATP present in the cell cultures, adding 35 μl of Cell Titer Glo® reagent to the cell plates. Luminescence was read in the SpectraMax M5. The concentration inhibiting cell viability by 50% was determined using a 4-parametric fit of the normalized dose response curves.

[1] = molecular target: wild-type EZH2 (PRC2 enzyme) (Homo sapiens (Human), UniProt Q15910); experiment: PRC2 enzyme assay on peptide substrate, wild-type EZH2 (H3K27me0 peptide, 3H-SAM Flashplate); format: biochemical; settings: wild-type PRC2 4 nM, read-out: WT EZH2 IC50
Sequence of wild-type EZH2 (PRC2 enzyme) (Q15910 whole entry): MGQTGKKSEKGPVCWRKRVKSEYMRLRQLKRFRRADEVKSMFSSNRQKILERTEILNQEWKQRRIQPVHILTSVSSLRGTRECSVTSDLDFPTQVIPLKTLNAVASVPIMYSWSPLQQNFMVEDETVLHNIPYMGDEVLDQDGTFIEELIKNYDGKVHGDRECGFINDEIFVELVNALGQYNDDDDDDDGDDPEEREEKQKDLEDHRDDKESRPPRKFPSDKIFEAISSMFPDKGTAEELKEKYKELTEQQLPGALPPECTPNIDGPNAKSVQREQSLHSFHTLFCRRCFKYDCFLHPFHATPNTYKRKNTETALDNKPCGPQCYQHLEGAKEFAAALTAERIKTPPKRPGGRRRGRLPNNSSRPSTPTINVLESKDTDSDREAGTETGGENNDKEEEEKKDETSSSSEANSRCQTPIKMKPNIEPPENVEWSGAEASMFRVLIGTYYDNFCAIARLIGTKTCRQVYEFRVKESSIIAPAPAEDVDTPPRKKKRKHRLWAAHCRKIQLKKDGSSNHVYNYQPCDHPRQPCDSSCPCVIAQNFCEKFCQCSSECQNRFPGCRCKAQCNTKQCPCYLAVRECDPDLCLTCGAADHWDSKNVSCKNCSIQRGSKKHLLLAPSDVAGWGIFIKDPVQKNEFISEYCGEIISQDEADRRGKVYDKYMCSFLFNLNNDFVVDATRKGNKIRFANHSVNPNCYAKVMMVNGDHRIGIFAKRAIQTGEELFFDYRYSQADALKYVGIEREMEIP
Sequence of wild-type EZH2 (PRC2 enzyme) (O75530 whole entry partner): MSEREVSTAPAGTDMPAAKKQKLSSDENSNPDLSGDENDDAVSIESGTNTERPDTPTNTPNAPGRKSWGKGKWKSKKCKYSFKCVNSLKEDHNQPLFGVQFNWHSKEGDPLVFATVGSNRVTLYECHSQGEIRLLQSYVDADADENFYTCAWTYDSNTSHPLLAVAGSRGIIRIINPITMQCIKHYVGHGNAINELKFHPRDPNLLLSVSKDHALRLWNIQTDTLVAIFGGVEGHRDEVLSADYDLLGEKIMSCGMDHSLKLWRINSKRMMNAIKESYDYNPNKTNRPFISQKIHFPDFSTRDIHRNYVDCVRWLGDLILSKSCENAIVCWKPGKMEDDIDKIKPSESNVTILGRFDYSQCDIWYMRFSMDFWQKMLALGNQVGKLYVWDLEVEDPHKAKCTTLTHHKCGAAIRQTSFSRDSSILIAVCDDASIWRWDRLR
Sequence of wild-type EZH2 (PRC2 enzyme) (Q15022 whole entry partner): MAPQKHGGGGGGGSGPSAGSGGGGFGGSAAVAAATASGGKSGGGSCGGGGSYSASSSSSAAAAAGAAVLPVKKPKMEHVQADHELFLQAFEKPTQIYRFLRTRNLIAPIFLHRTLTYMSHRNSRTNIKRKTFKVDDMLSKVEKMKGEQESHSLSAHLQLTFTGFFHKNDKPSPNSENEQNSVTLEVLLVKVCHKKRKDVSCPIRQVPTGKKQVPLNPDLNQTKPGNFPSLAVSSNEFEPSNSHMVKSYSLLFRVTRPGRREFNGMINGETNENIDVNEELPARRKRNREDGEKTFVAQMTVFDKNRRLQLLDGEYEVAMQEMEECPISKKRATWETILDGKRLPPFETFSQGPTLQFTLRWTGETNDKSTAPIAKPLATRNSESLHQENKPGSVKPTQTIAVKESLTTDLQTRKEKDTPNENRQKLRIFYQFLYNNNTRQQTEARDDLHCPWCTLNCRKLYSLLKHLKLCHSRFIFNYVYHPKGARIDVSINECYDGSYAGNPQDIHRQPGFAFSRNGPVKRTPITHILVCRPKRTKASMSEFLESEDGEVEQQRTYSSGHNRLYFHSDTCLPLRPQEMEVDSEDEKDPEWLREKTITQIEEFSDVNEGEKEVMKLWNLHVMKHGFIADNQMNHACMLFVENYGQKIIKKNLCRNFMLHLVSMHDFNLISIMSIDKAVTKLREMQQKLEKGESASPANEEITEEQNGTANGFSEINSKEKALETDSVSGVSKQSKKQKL
Sequence of wild-type EZH2 (PRC2 enzyme) (Q09028 whole entry partner): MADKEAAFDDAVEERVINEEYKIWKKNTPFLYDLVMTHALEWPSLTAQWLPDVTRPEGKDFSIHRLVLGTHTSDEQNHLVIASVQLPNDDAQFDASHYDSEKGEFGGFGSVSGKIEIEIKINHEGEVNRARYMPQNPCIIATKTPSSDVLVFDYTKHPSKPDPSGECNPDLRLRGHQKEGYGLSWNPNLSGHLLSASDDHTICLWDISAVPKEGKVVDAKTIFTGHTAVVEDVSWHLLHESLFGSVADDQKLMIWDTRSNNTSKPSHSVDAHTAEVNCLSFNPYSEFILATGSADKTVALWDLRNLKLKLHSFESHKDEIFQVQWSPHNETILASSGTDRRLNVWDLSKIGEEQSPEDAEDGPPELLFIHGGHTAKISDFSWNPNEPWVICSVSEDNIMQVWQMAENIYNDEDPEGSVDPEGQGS

[2] = molecular target: EZH2 Y641F mutant (PRC2 enzyme) (Homo sapiens (Human), UniProt Q15910, Y641F); experiment: PRC2 enzyme assay on peptide substrate, EZH2 Y641F mutant (H3K27me2 peptide, 3H-SAM Flashplate); format: biochemical; settings: Y641F mutant PRC2 4 nM
Sequence of EZH2 Y641F mutant (PRC2 enzyme) (Q15910 whole entry Y641F): as the sequence (Q15910 whole entry) above, with Y641F counted along it
Sequence of EZH2 Y641F mutant (PRC2 enzyme) (O75530 whole entry partner): as the sequence (O75530 whole entry partner) above
Sequence of EZH2 Y641F mutant (PRC2 enzyme) (Q15022 whole entry partner): as the sequence (Q15022 whole entry partner) above
Sequence of EZH2 Y641F mutant (PRC2 enzyme) (Q09028 whole entry partner): as the sequence (Q09028 whole entry partner) above

[3] = tested on: H3K27me3 in WSU-DLCL2 cells; experiment: WSU-DLCL2 methylation assay (H3K27me3 ELISA); format: cell-based, human; settings: Homo sapiens, WSUDLCL2, 96 hours incubation, H3K27me3 normalised to total H3
Source text: WSU-DLCL2 Methylation Assay
WSU-DLCL2 suspension cells were purchased from DSMZ (German Collection of Microorganisms and Cell Cultures, Braunschweig, Germany). RPMI/Glutamax Medium, Penicillin-Streptomycin, Heat Inactivated Fetal Bovine Serum, and D-PBS were purchased from Life Technologies, Grand Island, N.Y., USA. Extraction Buffer and Neutralization Buffer (5×) were purchased from Active Motif, Carlsbad, Calif., USA. Rabbit anti-Histone H3 antibody was purchased from Abcam, Cambridge, Mass., USA. Rabbit anti-H3K27me3 and HRP-conjugated anti-rabbit-IgG were purchased from Cell Signaling Technology, Danvers, Mass., USA. TMB “Super Sensitive” substrate was sourced from BioFX Laboratories, Owings Mills, Md., USA. IgG-free Bovine Serum Albumin was purchased from Jackson ImmunoResearch, West Grove, Pa., USA. PBS with Tween (10×PBST) was purchased from KPL, Gaithersburg, Md., USA. Sulfuric Acid was purchased from Ricca Chemical, Arlington, Tex., USA. Immulon ELISA plates were purchased from Thermo, Rochester, N.Y., USA. V-bottom cell culture plates were purchased from Corning Inc., Corning, N.Y., USA. V-bottom polypropylene plates were purchased from Greiner Bio-One, Monroe, N.C., USA.
WSU-DLCL2 suspension cells were maintained in growth medium (RPMI 1640 supplemented with 10% v/v heat inactivated fetal bovine serum and 100 units/mL penicillin-streptomycin) and cultured at 37° C. under 5% CO2. Under assay conditions, cells were incubated in Assay Medium (RPMI 1640 supplemented with 20% v/v heat inactivated fetal bovine serum and 100 units/mL penicillin-streptomycin) at 37° C. under 5% CO2 on a plate shaker.
WSU-DLCL2 cells were seeded in assay medium at a concentration of 50,000 cells per mL to a 96-well V-bottom cell culture plate with 200 μL per well. […] Plates were incubated on a titer-plate shaker at 37° C., 5% CO2 for 96 hours. After four days of incubation, plates were spun at 241×g for five minutes and medium was aspirated gently from each well of cell plate without disturbing cell pellet. Pellet was resuspended in: 200 μL DPBS and plates were spun again at 241×g for five minutes. The supernatant was aspirated and cold (4° C.) Extraction buffer (100 μL) was added per well. Plates were incubated at 4° C. on orbital shaker for two hours. Plates were spun at 3427×g×10 minutes. Supernatant (80 μL per well) was transferred to its respective well in 96 well V-bottom polypropylene plate. Neutralization Buffer 5× (20 μL per well) was added to V-bottom polypropylene plate containing supernatant. V-bottom polypropylene plates containing crude histone preparation (CHP) were incubated on orbital shaker×five minutes. Crude Histone Preparations were added (2 μL per well) to each respective well into duplicate 96 well ELISA plates containing 100 μL Coating Buffer (1×PBS+BSA 0.05% w/v). Plates were sealed and incubated overnight at 4° C. The following day, plates were washed three times with 300 μL per well 1×PBST. […] For H3K27me3 detection, 100 μL of HRP conjugated anti-rabbit IgG antibody diluted to 1:4000 in ELISA diluent was added per well. Plates were incubated at room temperature for 90 minutes. […] TMB substrate 100 μL was added per well. Histone H3 plates were incubated for five minutes at room temperature. H3K27me3 plates were incubated for 10 minutes at room temperature. The reaction was stopped with sulfuric acid 1N (100 μL per well). Absorbance for each plate was read at 450 nm.
Each plate included eight control wells DMSO only treatment (Minimum Inhibition) as well as eight control wells for maximum inhibition (Background wells).
The average of the ratio values for each control type was calculated and used to determine the percent inhibition for each test well in the plate. Test compound was serially diluted three-fold in DMSO for a total of ten test concentrations, beginning at 25 μM.

Row | pIC50 [1] | pIC50 [2] | Structure (SMILES) | pIC50 (WSU-DLCL2 cells) | pIC50 [3]
1 | < 4.30 | – | CCN(c1cc(Cl)cc(C(=O)NCc2c(C)[nH]n(C)c2=O)c1C)[C@@H]1COC[C@H]1OC (relative stereo) [Compound 42, 5-chloro-N-((2,5-dimethyl-3-oxo-2,3-dihydro-1H-pyrazol-4-yl)methyl)-3-(ethyl((trans)-4-methoxytetrahydrofuran-3-yl)amino)-2-methylbenzamide] | < 4.70 | –
2 | – | – | CCN(c1cc(Cl)cc(C(=O)NCc2c(CCN(C)C)cc3n(c2=O)NCC3)c1C)[C@H]1CC[C@H](N(C)C)CC1 [Compound 1, 5-chloro-3-(((trans)-4-(dimethylamino)cyclohexyl)(ethyl)amino)-N-((5-(2-(dimethylamino)ethyl)-7-oxo-1,2,3,7-tetrahydropyrazolo[1,5-a]pyridin-6-yl)methyl)-2-methylbenzamide] | 6.07 | –
3 | 6.65 | 6.96 | CCN(c1cc(Cl)cc(C(=O)NCc2c(C)[nH]n(C)c2=O)c1C)[C@H]1CC[C@H](N(C)C)CC1 [Compound 34, 5-chloro-N-((2,5-dimethyl-3-oxo-2,3-dihydro-1H-pyrazol-4-yl)methyl)-3-(((trans)-4-(dimethylamino)cyclohexyl)(ethyl)amino)-2-methylbenzamide] | 5.16 | 4.73
4 | 6.57 | 7.20 | CCN(c1cc(-c2ccc(OCCOC)cc2)cc(C(=O)NCc2c(C)[nH]n(C)c2=O)c1C)[C@H]1CC[C@H](N(C)C)CC1 [Compound 35, N-((2,5-dimethyl-3-oxo-2,3-dihydro-1H-pyrazol-4-yl)methyl)-5-(((trans)-4-(dimethylamino)cyclohexyl)(ethyl)amino)-4′-(2-methoxyethoxy)-4-methyl-[1,1′-biphenyl]-3-carboxamide] | < 4.70 | 4.75
5 | 6.08 | 6.94 | CCn1[nH]c(C)c(CNC(=O)c2cc(Cl)cc(N(CC)[C@H]3CC[C@H](N(C)C)CC3)c2C)c1=O [Compound 36, 5-chloro-3-(((trans)-4-(dimethylamino)cyclohexyl)(ethyl)amino)-N-((2-ethyl-5-methyl-3-oxo-2,3-dihydro-1H-pyrazol-4-yl)methyl)-2-methylbenzamide] | < 4.70 | 5.10
6 | 5.47 | 6.58 | CCc1[nH]n(C)c(=O)c1CNC(=O)c1cc(Cl)cc(N(CC)[C@H]2CC[C@H](N(C)C)CC2)c1C [Compound 38, 5-chloro-3-(((trans)-4-(dimethylamino)cyclohexyl)(ethyl)amino)-N-((5-ethyl-2-methyl-3-oxo-2,3-dihydro-1H-pyrazol-4-yl)methyl)-2-methylbenzamide] | < 4.70 | 4.74
7 | 5.54 | 6.24 | CCN(c1cc(Cl)cc(C(=O)NCc2c(=O)[nH]n3cccnc23)c1C)[C@H]1CC[C@H](N(C)C)CC1 [Compound 51, 5-chloro-3-(((trans)-4-(dimethylamino)cyclohexyl)(ethyl)amino)-2-methyl-N-((2-oxo-1,2-dihydropyrazolo-[1,5-a]-pyrimidin-3-yl)methyl)benzamide] | < 4.70 | –
8 | 6.44 | 7.52 | CCn1[nH]c(=O)c(CNC(=O)c2cc(Cl)cc(N(CC)[C@H]3CC[C@H](N(C)C)CC3)c2C)c1C [Compound 52, 5-chloro-3-(((trans)-4-(dimethylamino)cyclohexyl)(ethyl)amino)-N-((1-ethyl-5-methyl-3-oxo-2,3-dihydro-1H-pyrazol-4-yl)methyl)-2-methylbenzamide] | 5.13 | 5.52
9 | 7.60 | 7.96 | CCN(c1cc(Cl)cc(C(=O)NCc2c(C)n(C)[nH]c2=O)c1C)[C@H]1CC[C@H](N(C)Cc2ccc(OC)cc2)CC1 [Compound 56, 5-chloro-N-((1,5-dimethyl-3-oxo-2,3-dihydro-1H-pyrazol-4-yl)methyl)-3-(ethyl((trans)-4-((4-methoxybenzyl)(methyl)amino)cyclohexyl)amino)-2-methylbenzamide] | 4.97 | 5.33
10 | 7.70 | 8.00 | CCN(c1cc(Cl)cc(C(=O)NCc2c(C)n(C)[nH]c2=O)c1C)[C@H]1CC[C@H](N(C)Cc2cccc(OC)c2)CC1 [Compound 57, 5-chloro-N-((1,5-dimethyl-3-oxo-2,3-dihydro-1H-pyrazol-4-yl)methyl)-3-(ethyl((trans)-4-((3-methoxybenzyl)(methyl)amino)cyclohexyl)amino)-2-methylbenzamide] | 5.22 | 5.21
11 | 5.81 | 6.47 | CCCN(c1cc(-c2ccc(OCCOC)cc2)cc(C(=O)NCc2c(C)n(C)[nH]c2=O)c1C)[C@H]1CC[C@H](N(C)C)CC1 [Compound 58, N-((1,5-dimethyl-3-oxo-2,3-dihydro-1H-pyrazol-4-yl)methyl)-5-(((trans)-4-(dimethylamino)cyclohexyl)(propyl)amino)-4′-(2-methoxyethoxy)-4-methyl-[1,1′-biphenyl]-3-carboxamide] | 4.85 | –
12 | – | – | CCN(c1cc(-c2ccc(OCCOC)cc2)cc(C(=O)NCc2c(C)n(C)[nH]c2=O)c1C)[C@H]1CC[C@H](N(C)C)CC1 [Compound 59, N-((1,5-dimethyl-3-oxo-2,3-dihydro-1H-pyrazol-4-yl)methyl)-5-(((trans)-4-(dimethylamino)cyclohexyl)(ethyl)amino)-4′-(2-methoxyethoxy)-4-methyl-[1,1′-biphenyl]-3-carboxamide] | < 4.70 | < 4.30
13 | 5.68 | 6.16 | CCN(c1cc(-c2ccc(OCCOC)cc2)cc(C(=O)NCc2c(C)n(C)[nH]c2=O)c1C)[C@H]1CC[C@H](N(C)CCOC)CC1 [Compound 60, N-((1,5-dimethyl-3-oxo-2,3-dihydro-1H-pyrazol-4-yl)methyl)-5-(ethyl((trans)-4-((2-methoxyethyl)(methyl)amino)cyclohexyl)amino)-4′-(2-methoxyethoxy)-4-methyl-[1,1′-biphenyl]-3-carboxamide] | 4.87 | –
14 | 7.34 | 7.92 | CCn1[nH]c(=O)c(CNC(=O)c2cc(Cl)cc(N(CC)[C@H]3CC[C@H](N(C)Cc4cccc(OC)c4)CC3)c2C)c1C [Compound 63, 5-chloro-3-(ethyl ((trans)-4-((3-methoxybenzyl)-(methyl)-amino)-cyclohexyl)amino)-N-((1-ethyl-5-methyl-3-oxo-2,3-dihydro-1H-pyrazol-4-yl)methyl)-2-methylbenzamide] | 5.81 | < 4.30
15 | 7.41 | 7.92 | CCn1nc(OC)c(CNC(=O)c2cc(Cl)cc(N(CC)[C@H]3CC[C@H](N(C)Cc4ccc(OC)cc4)CC3)c2C)c1C [Compound 70, 5-chloro-3-(ethyl((trans)-4-((4-methoxybenzyl)-(methyl)-amino)-cyclohexyl)-amino)-N-((1-ethyl-3-methoxy-5-methyl-1H-pyrazol-4-yl)methyl)-2-methylbenzamide] | 5.44 | 5.39
16 | 7.74 | 8.30 | CCN(c1cc(Cl)cc(C(=O)NCc2c(N3CCCC3)n(C)[nH]c2=O)c1C)[C@H]1CC[C@H](N(C)C)CC1 [Compound 81, 5-chloro-3-(((trans)-4-(dimethylamino)cyclohexyl) (ethyl)amino)-2-methyl-N-((1-methyl-3-oxo-5-(pyrrolidin-1-yl)-2,3-dihydro-1H-pyrazol-4-yl)methyl)benzamide] | 5.90 | 5.66
17 | 4.45 | 5.12 | CCOc1n[nH]c(C)c1CNC(=O)c1cc(Cl)cc(N(CC)[C@H]2CC[C@H](N(C)C)CC2)c1C [Compound 85, 5-chloro-3-(((trans)-4-(dimethylamino)cyclohexyl)(ethyl)amino)-N-((3-ethoxy-5-methyl-1H-pyrazol-4-yl)methyl)-2-methylbenzamide] | 5.19 | < 4.30

Row | Structure (SMILES) | pIC50 [1] | pIC50 [2] | pIC50 (WSU-DLCL2 cells) | pIC50 [3]
18 | CCN(c1cc(Cl)cc(C(=O)NCc2c(C)[nH][nH]c2=O)c1C)[C@H]1CC[C@H](N(C)C)CC1 [Compound 32, 5-chloro-3-(ethyl((trans)-4-(dimethylamino)cyclohexyl)amino)-2-methyl-N-((5-methyl-3-oxo-2,3-dihydro-1H-pyrazol-4-yl)methyl]benzamide Formate] | 7.17 | 7.82 | 4.94 | 4.81
